# Target: human mGluR5 receptor (Homo sapiens (Human), UniProt P41594)
# Assay: Calcium influx assay based on fluorescence (mGluR5 PAM activity)
# Conditions: human mGluR5 receptor-overexpressed HEK293 cell line; L-glutamate EC20; Fluo-4, FLIPR
# Outline: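 HEK293 cells overexpressing human mGluR5, loaded 1 h with Fluo-4 at 37° C. Compounds (10 μM to 10 nM final, 0.1–0.2% DMSO) added with an EC20 concentration of L-glutamate, and Ca2+ response read by FLIPR at room temperature. Activity scaled as 0% for EC20 glutamate alone and 100% for glutamate maximum.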
# Chain of human mGluR5 receptor (P41594 21-1212): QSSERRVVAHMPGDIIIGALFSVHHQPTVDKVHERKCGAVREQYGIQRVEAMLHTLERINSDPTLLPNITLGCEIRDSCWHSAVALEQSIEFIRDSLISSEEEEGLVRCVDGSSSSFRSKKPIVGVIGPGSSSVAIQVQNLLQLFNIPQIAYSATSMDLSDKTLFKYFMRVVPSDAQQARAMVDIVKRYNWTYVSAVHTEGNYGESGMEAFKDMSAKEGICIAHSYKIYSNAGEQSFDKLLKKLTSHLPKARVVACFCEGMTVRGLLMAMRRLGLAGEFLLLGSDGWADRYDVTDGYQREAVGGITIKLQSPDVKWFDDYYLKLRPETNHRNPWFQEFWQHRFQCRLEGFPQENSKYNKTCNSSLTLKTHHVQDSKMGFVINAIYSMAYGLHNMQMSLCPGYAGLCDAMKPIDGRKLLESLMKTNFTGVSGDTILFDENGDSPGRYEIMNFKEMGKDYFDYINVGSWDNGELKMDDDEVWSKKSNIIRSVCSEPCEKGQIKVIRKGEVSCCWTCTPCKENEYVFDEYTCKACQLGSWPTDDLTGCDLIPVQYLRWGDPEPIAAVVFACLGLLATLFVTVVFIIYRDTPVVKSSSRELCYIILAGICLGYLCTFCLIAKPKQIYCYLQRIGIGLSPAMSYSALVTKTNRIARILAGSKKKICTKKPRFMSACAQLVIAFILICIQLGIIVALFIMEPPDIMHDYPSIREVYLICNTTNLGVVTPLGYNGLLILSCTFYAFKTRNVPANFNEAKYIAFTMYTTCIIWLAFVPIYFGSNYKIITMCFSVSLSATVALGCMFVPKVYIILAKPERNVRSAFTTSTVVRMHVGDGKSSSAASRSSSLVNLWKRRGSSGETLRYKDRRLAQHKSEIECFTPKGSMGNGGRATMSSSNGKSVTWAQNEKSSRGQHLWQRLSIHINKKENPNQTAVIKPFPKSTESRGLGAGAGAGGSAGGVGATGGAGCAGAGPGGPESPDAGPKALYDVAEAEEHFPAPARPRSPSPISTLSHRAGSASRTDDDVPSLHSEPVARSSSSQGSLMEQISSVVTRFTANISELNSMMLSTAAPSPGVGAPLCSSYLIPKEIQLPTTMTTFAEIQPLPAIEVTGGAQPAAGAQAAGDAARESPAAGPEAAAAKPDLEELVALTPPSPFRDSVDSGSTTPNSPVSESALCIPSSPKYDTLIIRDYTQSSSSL
row,EC50,Compound
1,0.1 to 0.5 µM,"Fc1ccc(OCc2cn3cc(-c4cnc(F)c(F)c4)cnc3n2)cc1 [Example 83, 6-(5,6-difluoro-3-pyridyl)-2-[(4-fluorophenoxy)methyl]imidazo[1,2-a]pyrimidine]"
2,0.1 to 0.5 µM,"Fc1ccc(-c2cnc3nc(COc4ccccc4)cn3c2)cc1 [Example 8, 6-(4-fluorophenyl)-2-phenoxymethylimidazo[1,2-a]pyrimidine]"
3,0.1 to 0.5 µM,"Nc1ccccc1-c1cnc2nc(COc3ccccc3)cn2c1 [Example 10, 6-(2-aminophenyl)-2-phenoxymethylimidazo[1,2-a]pyrimidine]"
4,0.1 to 0.5 µM,"Oc1cc(F)ccc1-c1cnc2nc(COc3cccc(F)c3)cn2c1 [Example 57, 5-fluoro-2-[2-[(3-fluorophenoxy)methyl]imidazo[1,2-a]pyrimidin-6-yl]phenol]"
5,0.1 to 0.5 µM,"OCc1cc(F)ccc1-c1cnc2nc(COc3cccc(F)c3)cn2c1 [Example 96, [5-fluoro-2-[2-[(3-fluorophenoxy)methyl]imidazo[1,2-a]pyrimidin-6-yl]phenyl]methanol]"
6,0.1 to 0.5 µM,"Fc1ccc(-c2cnc3nc(COc4ccccc4)cn3n2)c(F)c1 [Example 178, 2-(2,4-difluorophenyl)-6-(phenoxymethyl)imidazo[1,2-b][1,2,4]triazine]"
7,0.5 to 1 µM,"Oc1ccccc1-c1cnc2nc(COc3ccccc3)cn2c1 [Example 16, 6-(2-hydroxyphenyl)-2-phenoxymethylimidazo[1,2-a]pyrimidine]"
8,0.5 to 1 µM,"COc1ccc(-c2cnc3nc(COc4ccc(F)cc4)cn3c2)cc1N [Example 84, 5-[2-[(4-fluorophenoxy)methyl]imidazo[1,2-a]pyrimidin-6-yl]-2-methoxy-aniline]"
9,0.5 to 1 µM,"COc1cncc(-c2cnc3nc(COc4ccc(F)cc4)cn3c2)c1 [Example 89, 2-[(4-fluorophenoxy)methyl]-6-(5-methoxy-3-pyridyl)imidazo[1,2-a]pyrimidine]"
10,0.1 to 0.5 µM,"CSc1cc(F)ccc1-c1cnc2nc(COc3ccccn3)cn2c1 [Example 138, 6-(4-fluoro-2-methylsulfanyl-phenyl)-2-(2-pyridyloxymethyl)imidazo[1,2-a]pyrimidine]"
11,0.1 to 0.5 µM,"Fc1ccc(OCc2cn3cc(-c4ccc(C(F)(F)F)nc4)cnc3n2)cc1 [Example 65, 2-[(4-fluorophenoxy)methyl]-6-[6-(trifluoromethyl)-3-pyridyl]imidazo[1,2-a]pyrimidine]"
12,0.1 to 0.5 µM,"Cc1ccc(N)cc1-c1cnc2nc(COc3ccccc3)cn2c1 [Example 11, 6-(3-amino-6-methylphenyl)-2-phenoxymethylimidazo[1,2-a]pyrimidine]"

# Source: US9745310B2 (SK BIOPHARMACEUTICALS CO., LTD., priority 2015, dated 2017)
